According to patent US9302999B2, “Substituted triazoles as herbicides” (E. I. DU PONT DE NEMOURS AND COMPANY, priority 2012, dated 2016):

How the values were obtained:
Assay type in all cases: in vivo
[1] = tested on: morningglory (Ipomoea coccinea); assay: Test C pre-/postemergence: morningglory
Method in brief: (§1)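 Preemergence on seeds in loam/sand, postemergence on 2–18 cm (1–4-leaf) plants in peat-based medium; compounds in non-phytotoxic solvent with surfactant. After 13–15 days in greenhouse, visual rating versus controls, 0 (no effect) to 100 (complete control).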

[2] = tested on: winter wheat (Triticum aestivum); assay: Test C pre-/postemergence: winter wheat
Method in brief: as §1

[3] = tested on: ryegrass, Italian (Italian ryegrass, Lolium multiflorum); assay: Test C pre-/postemergence: ryegrass, Italian
Method in brief: as §1

[4] = tested on: large crabgrass (Digitaria sanguinalis); assay: Test C pre-/postemergence: large crabgrass
Method in brief: as §1

[5] = tested on: barnyardgrass (Echinochloa crus-galli); assay: Test B flooded paddy: barnyardgrass; details: Flood; 250 g ai/ha; applied to paddy water at 2-leaf stage; visually evaluated after 13 to 15 days
Method in brief: (§2)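 Response scored visually, 0–100 relative to controls, 13–15 days after the compound was applied into paddy water; plants were at the 2-leaf stage in pots kept flooded to 3 cm.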

corn (Zea mays) = assay: Test C pre-/postemergence: corn
Method in brief: as §1

[6] = tested on: blackgrass (Alopecurus myosuroides); assay: Test C pre-/postemergence: blackgrass
Method in brief: as §1

[7] = tested on: sedge, umbrella (small-flower umbrella sedge Cyperus difformis); assay: Test B flooded paddy: sedge, umbrella; details: Flood; 250 g ai/ha; applied to paddy water at 2-leaf stage; visually evaluated after 13 to 15 days
Method in brief: as §2

[8] = tested on: chickweed (common chickweed, Stellaria media); assay: Test C postemergence: chickweed
Method in brief: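 Pot-grown plants in peat/vermiculite medium sprayed postemergence at 2–18 cm height (1- to 4-leaf stage). Kept in greenhouse 13 to 15 days, then visually rated against untreated controls on a 0–100 scale (0 = no effect, 100 = complete control).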

[9] = tested on: ducksalad (Heteranthera limosa); assay: Test B flooded paddy: ducksalad; details: Flood; 250 g ai/ha; applied to paddy water at 2-leaf stage; visually evaluated after 13 to 15 days
Method in brief: as §2

[10] = tested on: velvetleaf (Abutilon theophrasti); assay: Test A pre-/postemergence: velvetleaf
Method in brief: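 Injury was scored visually on a 0 (no effect) to 100 (complete control) scale versus untreated controls roughly ten days after treatment in the greenhouse. Compounds, formulated in surfactant-containing non-phytotoxic solvent, went on as soil-directed preemergence spray or postemergence to one- to two-leaf plants 2–10 cm tall.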

[11] = Postemergence, 31 g ai/ha, scale 0 to 100 (0 no effect, 100 complete control)
[12] = Postemergence, 125 g ai/ha, scale 0 to 100, 0 no effect, 100 complete control
[13] = Postemergence, 250 g ai/ha, scale 0 to 100 (0 no effect, 100 complete control)
[14] = Preemergence, 31 g ai/ha, scale 0 (no effect) to 100 (complete control)
[15] = Preemergence, 62 g ai/ha, scale of 0 to 100, 0 is no effect, 100 is complete control
[16] = Preemergence, 125 g ai/ha, scale 0 to 100, 0 no effect, 100 complete control
[17] = Preemergence, 250 g ai/ha, scale 0 to 100, 0 no effect, 100 complete control
[18] = Postemergence, 62 g ai/ha, scale 0 to 100 (0 no effect, 100 complete control)
[19] = Postemergence, 250 g ai/ha, scale 0 to 100
[20] = 31 g ai/ha, scale 0 to 100 (0 no effect, 100 complete control)
[21] = 62 g ai/ha, scale 0 to 100 (0 no effect, 100 complete control)
[22] = Postemergence, 125 g ai/ha, 0 to 100 scale, 0 is no effect, 100 is complete control
[23] = Postemergence, 500 g ai/ha, 0 to 100 scale, 0 is no effect, 100 is complete control
[24] = Preemergence, 125 g ai/ha, 0 to 100 scale where 0 is no effect and 100 is complete control
[25] = Preemergence, 500 g ai/ha, 0 to 100 scale (0 no effect, 100 complete control)

## CCc1nn(-c2ccc(C(F)(F)F)cc2)nc1Oc1ccnc(C(F)(F)F)c1 [Compound 169]
[1]; [11]
  Plant response rating, Morningglory: 98
[1]; [12]
  Plant response rating, Morningglory: 100
[1]; [13]
  Plant response rating, Morningglory: 100
[1]; [14]
  Plant response rating, Morningglory: 25
[1]; [15]
  Plant response rating, Morningglory: 55
[1]; [16]
  Plant response rating, Morningglory: 80
[1]; [17]
  Plant response rating, Morningglory: 85
[2]; [11]
  Plant response rating, Wheat: 10
[2]; [18]
  Plant response rating, Wheat: 10
[2]; [12]
  Plant response rating, Wheat: 30
[2]; [13]
  Plant response rating, Wheat: 30
[2]; [14]
  Plant response rating, Wheat: 5
[2]; [15]
  Plant response rating, Wheat: 15
[2]; [16]
  Plant response rating, Wheat: 20
[2]; [17]
  Plant response rating, Wheat: 50
[3]; [11]
  Plant response rating, Ryegrass, Italian: 10
[3]; [18]
  Plant response rating, Ryegrass, Italian: 10
[3]; [12]
  Plant response rating, Ryegrass, Italian: 25
[3]; [13]
  Plant response rating, Ryegrass, Italian: 40
[3]; [14]
  Plant response rating, Ryegrass, Italian: 85
[3]; [15]
  Plant response rating, Ryegrass, Italian: 90
[3]; [16]
  Plant response rating, Ryegrass, Italian: 90
[3]; [17]
  Plant response rating, Ryegrass, Italian: 95
[4]; [11]
  Plant response rating, Crabgrass, Large: 35
[4]; [18]
  Plant response rating, Crabgrass, Large: 35
[4]; [12]
  Plant response rating, Crabgrass, Large: 40
[4]; [19]
  Plant response rating, Crabgrass, Large: 80
[4]; [14]
  Plant response rating, Crabgrass, Large: 100
[4]; [15]
  Plant response rating, Crabgrass, Large: 100
[4]; [16]
  Plant response rating, Crabgrass, Large: 100
[4]; [17]
  Plant response rating, Crabgrass, Large: 100
[5]
  Plant response rating, Barnyardgrass (0 to 100 scale, 0 is no effect, 100 is complete control): 75
Corn (Zea mays); [11]
  Plant response rating, Corn: 10
Corn (Zea mays); [18]
  Plant response rating, Corn: 15
Corn (Zea mays); [12]
  Plant response rating, Corn: 20
Corn (Zea mays); [19]
  Plant response rating, Corn: 30
Corn (Zea mays); [14]
  Plant response rating, Corn: 5
Corn (Zea mays); [15]
  Plant response rating, Corn: 5
Corn (Zea mays); [16]
  Plant response rating, Corn: 10
Corn (Zea mays); [17]
  Plant response rating, Corn: 20
[6]; [11]
  Plant response rating, Blackgrass: 5
[6]; [18]
  Plant response rating, Blackgrass: 15
[6]; [12]
  Plant response rating, Blackgrass: 35
[6]; [19]
  Plant response rating, Blackgrass: 50
[6]; [14]
  Plant response rating, Blackgrass: 80
[6]; [15]
  Plant response rating, Blackgrass: 90
[6]; [16]
  Plant response rating, Blackgrass: 95
[6]; [17]
  Plant response rating, Blackgrass: 95
[7]
  Plant response rating, Sedge, Umbrella (0 to 100 scale, 0 is no effect, 100 is complete control): 85
[8]; [20]
  Plant response rating, Chickweed: 60
[8]; [21]
  Plant response rating, Chickweed: 60
[8]; 125 g ai/ha, scale 0 to 100, 0 no effect, 100 complete control
  Plant response rating, Chickweed: 95
[8]; 250 g ai/ha, scale 0 to 100
  Plant response rating, Chickweed: 100
[9]
  Plant response rating, Ducksalad (0 to 100 scale, 0 is no effect, 100 is complete control): 85
[10]; [22]
  Plant response rating, Velvetleaf: 100
[10]; [23]
  Velvetleaf plant response rating: 100
[10]; [24]
  Plant response rating, Velvetleaf: 50
[10]; [25]
  Plant response rating, Velvetleaf: 90

## CCCc1nn(-c2ccc(C(F)(F)F)cc2)nc1Oc1ccnc(C(F)(F)F)c1 [Compound 170]
[1]; [11]
  Plant response rating, Morningglory: 75
[1]; [18]
  Plant response rating, Morningglory: 98
[1]; [12]
  Plant response rating, Morningglory: 100
[1]; [13]
  Plant response rating, Morningglory: 100
[1]; [14]
  Plant response rating, Morningglory: 35
[1]; [15]
  Plant response rating, Morningglory: 55
[1]; [16]
  Plant response rating, Morningglory: 100
[1]; [17]
  Plant response rating, Morningglory: 100
[2]; [11]
  Plant response rating, Wheat: 10
[2]; [18]
  Plant response rating, Wheat: 20
[2]; [12]
  Plant response rating, Wheat: 35
[2]; [13]
  Plant response rating, Wheat: 35
[2]; [14]
  Plant response rating, Wheat: 10
[2]; [15]
  Plant response rating, Wheat: 40
[2]; [16]
  Plant response rating, Wheat: 60
[2]; [17]
  Plant response rating, Wheat: 60
[3]; [11]
  Plant response rating, Ryegrass, Italian: 15
[3]; [18]
  Plant response rating, Ryegrass, Italian: 35
[3]; [12]
  Plant response rating, Ryegrass, Italian: 35
[3]; [13]
  Plant response rating, Ryegrass, Italian: 70
[3]; [14]
  Plant response rating, Ryegrass, Italian: 55
[3]; [15]
  Plant response rating, Ryegrass, Italian: 90
[3]; [16]
  Plant response rating, Ryegrass, Italian: 95
[3]; [17]
  Plant response rating, Ryegrass, Italian: 95
[4]; [11]
  Plant response rating, Crabgrass, Large: 30
[4]; [18]
  Plant response rating, Crabgrass, Large: 30
[4]; [12]
  Plant response rating, Crabgrass, Large: 80
[4]; [19]
  Plant response rating, Crabgrass, Large: 90
[4]; [14]
  Plant response rating, Crabgrass, Large: 100
[4]; [15]
  Plant response rating, Crabgrass, Large: 100
[4]; [16]
  Plant response rating, Crabgrass, Large: 100
[4]; [17]
  Plant response rating, Crabgrass, Large: 100
[5]
  Plant response rating, Barnyardgrass (0 to 100 scale, 0 is no effect, 100 is complete control): 80
Corn (Zea mays); [11]
  Plant response rating, Corn: 15
Corn (Zea mays); [18]
  Plant response rating, Corn: 25
Corn (Zea mays); [12]
  Plant response rating, Corn: 30
Corn (Zea mays); [19]
  Plant response rating, Corn: 30
Corn (Zea mays); [14]
  Plant response rating, Corn: 5
Corn (Zea mays); [15]
  Plant response rating, Corn: 10
Corn (Zea mays); [16]
  Plant response rating, Corn: 15
Corn (Zea mays); [17]
  Plant response rating, Corn: 60
[6]; [11]
  Plant response rating, Blackgrass: 10
[6]; [18]
  Plant response rating, Blackgrass: 10
[6]; [12]
  Plant response rating, Blackgrass: 60
[6]; [19]
  Plant response rating, Blackgrass: 70
[6]; [14]
  Plant response rating, Blackgrass: 90
[6]; [15]
  Plant response rating, Blackgrass: 95
[6]; [16]
  Plant response rating, Blackgrass: 100
[6]; [17]
  Plant response rating, Blackgrass: 100
[7]
  Plant response rating, Sedge, Umbrella (0 to 100 scale, 0 is no effect, 100 is complete control): 90
[8]; [20]
  Plant response rating, Chickweed: 75
[8]; [21]
  Plant response rating, Chickweed: 95
[8]; 250 g ai/ha, scale 0 to 100
  Plant response rating, Chickweed: 95
[9]
  Plant response rating, Ducksalad (0 to 100 scale, 0 is no effect, 100 is complete control): 35
[10]; [22]
  Plant response rating, Velvetleaf: 100
[10]; [23]
  Velvetleaf plant response rating: 100
[10]; [24]
  Plant response rating, Velvetleaf: 90
[10]; [25]
  Plant response rating, Velvetleaf: 100
